# Assay results as given in patent US4619943A, “Neolignans of Saururus cernuus L and analogues thereof” (priority 1984, dated 1986).
# Where “and” joins values, the source holds several entries; their conditions need not be identical. Equal entries are not always repeated. Entries after “also recorded” stand apart in the source; their conditions may differ.
# Assays:
# mice = assay: Behavioral assay in mice (Campbell and Richter), sixteen behavioral signs; assay type: in vivo; settings: injected, after 30 minutes
# Method: The behavioral assay in mice was carried out using the procedures of Campbell and Richter (D. E. S. Campbell and W. Richter, Acta Pharmacol. et Toxicol. 25, 345 (1967)). The method involved injection of five mice with the drug and obseving for sixteen behavioral signs after 30 minutes. A recognizable pattern will be apparent, characteristic of various CNS-activities: sympathomimetic, tranquilizer, etc.
# Ten male Swiss mice (20-25 g) were divided into groups. One group was injected with physiological saline to serve as control. The other group was injected with 15 mg/Kg of benzene-partition sample (prepared as in Example 2) in suspension form (0.6 mg/ml) in physiological saline solution containing 0.5% carboxymethylcellulose. […] These are all considered as indicators of neuroleptic activity.
# Meloidogyne incognita = assay: Nematicidal test: galls on tomato root system; assay type: in vivo; settings: 10 days
# Method: Juveniles of the nematode Meloidogyne incognita were placed in 10 ml vials containing 5 ml of sand each and were soaked with 3 ml of solutions of the test compound at different concentrations in 1% ethanol in water for 24 hours. Tomato seedlings (4-6" high, with roots partly trimmed) were placed in the vials which were then placed in a growth chamber at 28° for 10 days. The tests were watered as needed to keep the sand moist. After 10 days, the plants were removed, and the galls counted on each root system. Each sample was tested in replicates of 10, and the results were analyzed according to Duncan's multiple range test ([…]). The results for SC-8 are shown in Tables 3 and 4 which represent two different experiments spaced approximately two months apart. In the later test (Table 4), the amount of ethanol in the test solutions was varied.
# [1] = Suppression of aggressiveness in isolated mice; assay type: in vivo, male Swiss mice; settings: eighty minutes after injection; for % Inhibition of Aggressiveness: 2 mg/Kg
# Method: They were not disturbed except for replacement of food. Under these conditions, about two thirds of the mice became aggressive as manifested by vicious attacks within one minute on a nonisolated male mouse placed in their cage. Such combative mice were divided into two groups. With one group held as the control, the mice in other group were injected with SC-8 at 2 or 1 mg/Kg. The mice were tested for aggressiveness before the injection and eighty minutes after the injection. If no fighting took place with a nonisolated mouse introduced into the cage, this was regarded as inhibition of aggressiveness (P. A. J. Janssen, A. H. Jageneau and C. J. E. Niemegeers; J. Pharmacol, Exp. Ther. 129, 471 (1960)). The experiment was repeated with SC-8 at 2 mg/Kg.
# [2] = Morphine antagonism (Straub tail phenomenon); settings: SC-8 1.5 mg/Kg, morphine sulfate 20 mg/Kg ip
smiles,measurement,setting,value
"COc1ccc(C(O)C(C)Oc2ccc([C@@H]3O[C@@H](c4ccc(OC(C)C(O)c5ccc(OC)c(OC)c5)c(OC)c4)[C@@H](C)[C@@H]3C)cc2OC)cc1OC (stereo partly drawn) [SC-8, 2α,5β-bis[3-methoxy-4-{threo-3-hydroxy-3-(3,4-dimethoxyphenyl)}isopropoxyphenyl]-3α,4β-dimethyltetrahydrofuran]",behavioral signs,mice,head drop with righting reflex; also recorded: decreased locomotion; also recorded: abduced hindlegs with righting reflex; also recorded: unsteady gait; also recorded: catalepsy
same,lowering of body temperature from 37° to,mice; from 37°,31 °
same,"Number of Galls/Root System, single replicates (1 to 10)","Meloidogyne incognita; Table 3, 1 ppm, 1% ethanol",17 (2×) and 13 and 20 and 21 and 24 and 3 and 28 and 40 and 16
same,"Number of Galls/Root System, Avg.","Meloidogyne incognita; Table 3, 1 ppm, 1% ethanol, 1% ethanol control 23.7, water 28.8",19.8
same,"Number of Galls/Root System, single replicates (1 to 10)","Meloidogyne incognita; Table 3, 5 ppm, 1% ethanol",26 and 34 and 3 and 0 (2×) and 19 and 24 and 4 and 14 and 13
same,"Number of Galls/Root System, Avg.","Meloidogyne incognita; Table 3, 5 ppm, 1% ethanol, 1% ethanol control 23.7, water 28.8",13.7
same,"Number of Galls/Root System, single replicates (1 to 10)","Meloidogyne incognita; Table 3, 10 ppm, 1% ethanol",14 (2×) and 17 and 18 and 1 and 2 and 42 and 29 and 3 and 7
same,"Number of Galls/Root System, Avg.","Meloidogyne incognita; Table 3, 10 ppm, 1% ethanol, 1% ethanol control 23.7, water 28.8",14.7
same,"Number of Galls/Root System, single replicates (1 to 10)","Meloidogyne incognita; Table 3, 25 ppm, 1% ethanol",3 and 10 and 11 and 18 and 17 (2×) and 26 and 15 and 12 and 24
same,"Number of Galls/Root System, Avg.","Meloidogyne incognita; Table 3, 25 ppm, 1% ethanol, 1% ethanol control 23.7, water 28.8",15.3
same,"Number of Galls/Root System, single replicates (1 to 10)","Meloidogyne incognita; Table 3, 50 ppm, 1% ethanol",12 (3×) and 15 and 16 (2×) and 20 and 21 and 18 and 7
same,"Number of Galls/Root System, Avg.","Meloidogyne incognita; Table 3, 50 ppm, 1% ethanol, 1% ethanol control 23.7, water 28.8",14.9
same,"Number of Galls/Root System, single replicates (1 to 10)","Meloidogyne incognita; Table 4, 1 ppm, 0.01% ethanol",7 and 10 and 18 and 14 and 23 and 32 and 1 and 5 and 16 and 9
same,"Number of Galls/Root System, Avg.","Meloidogyne incognita; Table 4, 1 ppm, 0.01% ethanol, water 25.5",13.5
same,"Number of Galls/Root System, single replicates (1 to 10)","Meloidogyne incognita; Table 4, 5 ppm, 0.05% ethanol",7 and 36 and 17 and 18 and 25 and 6 and 14 and 16 and 11
same,"Number of Galls/Root System, Avg.","Meloidogyne incognita; Table 4, 5 ppm, 0.05% ethanol, water 25.5",16.7
same,"Number of Galls/Root System, single replicates (1 to 10)","Meloidogyne incognita; Table 4, 10 ppm, 0.1% ethanol",10 and 22 and 34 and 23 and 25 and 26 and 24 and 0
same,"Number of Galls/Root System, Avg.","Meloidogyne incognita; Table 4, 10 ppm, 0.1% ethanol, water 25.5",18.4
same,"Number of Galls/Root System, single replicates (1 to 10)","Meloidogyne incognita; Table 4, 25 ppm, 0.25% ethanol",1 and 8 and 30 and 2 and 28 and 7 and 14
same,"Number of Galls/Root System, Avg.","Meloidogyne incognita; Table 4, 25 ppm, 0.25% ethanol, water 25.5",10.1
same,"Number of Galls/Root System, single replicates (1 to 10)","Meloidogyne incognita; Table 4, 50 ppm, 0.5% ethanol",12 and 4 and 0 and 22 and 8 and 1 and 5 and 34
same,"Number of Galls/Root System, Avg.","Meloidogyne incognita; Table 4, 50 ppm, 0.5% ethanol, water 25.5",8.6
same,Inhibition of Aggressiveness (in words),"[1]; 1 mg/Kg, 3 mice",Slight
same,% Inhibition of Aggressiveness,[1]; 3 mice,> 75%
same,% Inhibition of Aggressiveness,"[1]; 5 mice, repeat experiment",> 75%
same,effect on morphine-induced Straub tail,[2],counteracted this effect
same,"Degree of Tail Elevation, After 20 min.",[2]; before SC-8 40°,10 °
same,"Degree of Tail Elevation, After 50 min.",[2]; before SC-8 40°,10 °
